Laboratory results as given in the NIST ThermoML archive (doi:10.1021/acs.jced.6b00178).

Experiments:
[1] = 100 kPa, Liquid; for viscosity: Concentric cylinders viscometry; for mass density: Vibrating tube method
[2] = xn = mol fraction of the nth substance listed; conditions: 100 kPa, Liquid; for viscosity: Concentric cylinders viscometry; for mass density: Vibrating tube method

CCCCn1cc[n+](C)c1.COP(=O)([O-])OC [1-butyl-3-methyl-1H-imidazolium dimethylphosphate]
[1]
Conditions	mass density [kg/m3]	viscosity [mPa·s]
283.15 K	1168.4	2315.6
288.15 K	1164.9	1454.6
293.15 K	1161.4	943.97
298.15 K	1157.9	641.71
303.15 K	1154.3	446.92
308.15 K	1150.9	319.33
313.15 K	1147.6	232.1
318.15 K	1144.3	174.7
323.15 K	1141	133.37
328.15 K	1137.8	103.62
333.15 K	1134.6	81.97
338.15 K	1131.4	65.62
343.15 K	1128.3	53.39
348.15 K	1125.1	44.01
353.15 K	1122	37.08
358.15 K	1118.9	30.94
363.15 K	1115.7	26.33

CCCCn1cc[n+](C)c1.N#CN=C=[N-] [1-butyl-3-methylimidazolium dicyanamide]
[1]
Conditions	mass density [kg/m3]	viscosity [mPa·s]
283.15 K	1070	58.35
288.15 K	1066.7	45.91
293.15 K	1063.4	36.83
298.15 K	1060.2	30.08
303.15 K	1057	24.94
308.15 K	1053.8	20.98
313.15 K	1050.6	17.86
318.15 K	1047.5	15.38
323.15 K	1044.4	13.38
328.15 K	1041.3	11.74
333.15 K	1038.2	10.38
338.15 K	1035.2	9.251
343.15 K	1032.1	8.298
348.15 K	1029.1	7.488
353.15 K	1026.1	6.794
358.15 K	1023.2	6.196
363.15 K	1020.3	5.677

CCCCn1cc[n+](C)c1.F[B-](F)(F)F [1-butyl-3-methylimidazolium tetrafluoroborate] + CCCC[n+]1ccn(C)c1.O=S(=O)([N-]S(=O)(=O)C(F)(F)F)C(F)(F)F
[2], x2 = 0
Conditions	mass density [kg/m3]	viscosity [mPa·s]
283.15 K	1212.5	264.99
288.15 K	1208.8	192.43
293.15 K	1205.2	143.08
298.15 K	1201.6	108.74
303.15 K	1198	84.28
308.15 K	1194.5	66.52
313.15 K	1190.9	53.37
318.15 K	1187.4	43.47
323.15 K	1184	35.89
328.15 K	1180.5	30.01
333.15 K	1177	25.38
338.15 K	1173.6	21.68
343.15 K	1170.2	18.7
348.15 K	1166.8	16.26
353.15 K	1163.4	14.26
358.15 K	1160.1	12.59
363.15 K	1156.8	11.2

CCCC[n+]1ccn(C)c1.O=S(=O)([N-]S(=O)(=O)C(F)(F)F)C(F)(F)F + CCCCn1cc[n+](C)c1.N#CN=C=[N-]
[2], x1 = 1
Conditions	mass density [kg/m3]	viscosity [mPa·s]
283.15 K	1451.8	106.77
288.15 K	1446.9	82.16
293.15 K	1442.1	64.53
298.15 K	1437.2	51.6
303.15 K	1432.4	41.93
308.15 K	1427.6	34.59
313.15 K	1422.8	28.91
318.15 K	1418.1	24.46
323.15 K	1413.4	20.91
328.15 K	1408.7	18.05
333.15 K	1404	15.72
338.15 K	1399.3	13.8
343.15 K	1394.7	12.2
348.15 K	1390.1	10.86
353.15 K	1385.5	9.72
358.15 K	1381	8.754
363.15 K	1376.4	7.926

CCCC[n+]1ccn(C)c1.O=S(=O)([N-]S(=O)(=O)C(F)(F)F)C(F)(F)F + CC(=O)[O-].CCCCn1cc[n+](C)c1
[2], x1 = 1
Conditions	mass density [kg/m3]	viscosity [mPa·s]
283.15 K	1451.8	106.78
288.15 K	1446.9	82.14
293.15 K	1442.1	66.36
298.15 K	1437.2	51.58
303.15 K	1432.4	41.94
308.15 K	1427.6	34.6
313.15 K	1422.9	29.48
318.15 K	1418.2	24.47
323.15 K	1413.5	20.93
328.15 K	1408.8	18.07
333.15 K	1404.1	15.95
338.15 K	1399.4	13.83
343.15 K	1394.8	12.23
348.15 K	1390.2	10.9
353.15 K	1385.6	9.985
358.15 K	1381.1	8.806
363.15 K	1376.6	7.98

CCCC[n+]1ccn(C)c1.O=S(=O)([N-]S(=O)(=O)C(F)(F)F)C(F)(F)F + CCCCn1cc[n+](C)c1.F[P-](F)(F)(F)(F)F
[2], x1 = 1
Conditions	mass density [kg/m3]	viscosity [mPa·s]
283.15 K	1451.8	106.77
288.15 K	1446.9	82.16
293.15 K	1442.1	64.53
298.15 K	1437.2	51.6
303.15 K	1432.4	41.93
308.15 K	1427.6	34.59
313.15 K	1422.8	28.91
318.15 K	1418.1	24.46
323.15 K	1413.4	20.91
328.15 K	1408.7	18.05
333.15 K	1404	15.72
338.15 K	1399.3	13.8
343.15 K	1394.7	12.2
348.15 K	1390.1	10.86
353.15 K	1385.5	9.72
358.15 K	1381	8.754
363.15 K	1376.4	7.926

CCCC[n+]1ccn(C)c1.O=S(=O)([N-]S(=O)(=O)C(F)(F)F)C(F)(F)F + CCCCn1cc[n+](C)c1.N#C[S-]
[2], x1 = 1
Conditions	mass density [kg/m3]	viscosity [mPa·s]
283.15 K	1451.8	106.78
288.15 K	1446.9	82.14
293.15 K	1442.1	66.36
298.15 K	1437.2	51.58
303.15 K	1432.4	41.94
308.15 K	1427.6	34.6
313.15 K	1422.9	29.48
318.15 K	1418.2	24.47
323.15 K	1413.5	20.93
328.15 K	1408.8	18.07
333.15 K	1404.1	15.95
338.15 K	1399.4	13.83
343.15 K	1394.8	12.23
348.15 K	1390.2	10.9
353.15 K	1385.6	9.985
358.15 K	1381.1	8.806
363.15 K	1376.6	7.98

CCCC[n+]1ccn(C)c1.O=S(=O)([N-]S(=O)(=O)C(F)(F)F)C(F)(F)F + CCCCn1cc[n+](C)c1.COP(=O)([O-])OC
[2], x1 = 1
Conditions	mass density [kg/m3]	viscosity [mPa·s]
283.15 K	1451.8	106.78
288.15 K	1446.9	82.14
293.15 K	1442.1	66.36
298.15 K	1437.2	51.58
303.15 K	1432.4	41.94
308.15 K	1427.6	34.6
313.15 K	1422.9	29.48
318.15 K	1418.2	24.47
323.15 K	1413.5	20.93
328.15 K	1408.8	18.07
333.15 K	1404.1	15.95
338.15 K	1399.4	13.83
343.15 K	1394.8	12.23
348.15 K	1390.2	10.9
353.15 K	1385.6	9.985
358.15 K	1381.1	8.806
363.15 K	1376.6	7.98

CCCC[n+]1ccn(C)c1.O=S(=O)([N-]S(=O)(=O)C(F)(F)F)C(F)(F)F + CCCCn1cc[n+](C)c1.O=S(=O)([O-])C(F)(F)F
[2], x1 = 1
Conditions	mass density [kg/m3]	viscosity [mPa·s]
283.15 K	1451.8	106.78
288.15 K	1446.9	82.14
293.15 K	1442.1	66.36
298.15 K	1437.2	51.58
303.15 K	1432.4	41.94
308.15 K	1427.6	34.6
313.15 K	1422.9	29.48
318.15 K	1418.2	24.47
323.15 K	1413.5	20.93
328.15 K	1408.8	18.07
333.15 K	1404.1	15.95
338.15 K	1399.4	13.83
343.15 K	1394.8	12.23
348.15 K	1390.2	10.9
353.15 K	1385.6	9.985
358.15 K	1381.1	8.806
363.15 K	1376.6	7.98
